Where two headings read alike, the source gives them in different places.
Experiments:
Assay type in all cases: cell-based
[1] = system: Leishmania donovani axenic amastigote; experiment: In vitro assay for growth inhibition of Leishmania donovani axenic amastigote (Cell TiterGlo luminescence); conditions: Leishmania donovani, L. donovani axenic amastigotes in vitro; read-out: L. donovani amastigotes EC50
How it was run: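 Axenic L. donovani amastigotes (9600/well) grown at 37 °C, 5% CO2 in supplemented RPMI 1640, pH 5.5, with compound added from DMSO. After two days, viability read by CellTiter-Glo luminescence against DMSO and control-compound wells.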

[2] = system: Trypanosoma brucei brucei (Lister 427) strain; experiment: Assay for growth inhibition against Trypanosoma brucei brucei (Cell TiterGlo ATP luminescence); conditions: T. brucei brucei (Lister 427), read-out: T. Brucei (HAT) EC50
How it was run: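 T. b. brucei Lister 427 grown in HMI-9 with 10% FBS and 10% serum plus, seeded at 10,000 parasites/mL with 10-point threefold compound dilutions in duplicate, 37 °C for 2 days. Viability read as ATP luminescence 30 min after Cell TiterGlo; IC50 versus untreated controls.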

[3] = system: Trypanosoma cruzi amastigotes cultured in 3T3 fibroblast cells; experiment: Assay for growth inhibition of kinetoplastid parasite Trypanosoma cruzi (beta-galactosidase Tulahuen strain, CPRG readout); conditions: Trypanosoma cruzi, T. cruzi amastigotes in 3T3 fibroblast cells, read-out: Buckner infectious T. cruzi EC50
How it was run: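 3T3 fibroblasts (1,000 cells/well) plated overnight, treated with compound in DMSO, then infected with 10,000 Lac-Z-expressing Tulahuen trypomastigotes. After 6 days, 0.6 mM CPRG with 0.6% NP-40 added for 2 h at room temperature; absorbance gives relative intracellular amastigote numbers. Benznidazole and nifurtimox serve as positive controls.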

[4] = system: L. donovani HU3 strain in mouse peritoneal macrophages; experiment: Assay for inhibition of parasitemia of Leishmania donovani in mouse macrophages (SYBR Green nuclei count, high-content imaging); conditions: Leishmania donovani, Peritoneal macrophage, read-out: L. donovani in Mouse Macrophages EC50
How it was run: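 Peritoneal macrophages from uninfected BALB/c mice were infected for 24 h with spleen-derived L. donovani HU3 (4×10^5 parasites per 2×10^4 macrophages), then cultured with compound for 5 days at 37° C, 5% CO2. After fixation and permeabilization, parasite nuclei were stained with SYBR Green and counted by high-content imaging.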

[5] = L. donovani in mouse peritoneal macrophages

Row | Compound | EC50 [1] | EC50 [2] | EC50 ([3]; Fibroblast) | EC50 [4, 5] | EC50 ([2]; Trypanosoma brucei) | EC50 [3] | EC50 [4]
1 | COCC1CN(c2cnc3nn(-c4cc(NC(=O)N5CC(F)C5)ccc4F)cc3c2)C1 [Compound 232, 3-fluoro-N-(4-fluoro-3-{5-[3-(methoxymethyl)azetidin-1-yl]-2H-pyrazolo[3,4-b]pyridin-2-yl]phenyl)azetidine-1-carboxamide] | 12 nM | 5 nM | 12 nM | 10 nM |  |  | 
2 | Cn1cc(-c2cnc3nn(-c4cc(NC(=O)N5CC(F)C5)ccc4F)cc3c2)cn1 [Compound 304, 3-fluoro-N-{4-fluoro-3-[5-(1-methyl-1H-pyrazol-4-yl)-2H-pyrazolo[3,4-b]pyridin-2-yl]phenyl}azetidine-1-carboxamide] | 4 nM |  | 30 nM | 3 nM | 5 nM |  | 
3 | O=C(Nc1cccc(-n2cc3cc(N4CC5(CC5)C4)cnc3n2)c1)N1CCC1 [Compound 287, N-[3-(5-{5-azaspiro[2.3]hexan-5-yl}-2H-pyrazolo[3,4-b]pyridin-2-yl)phenyl]azetidine-1-carboxamide] | 21 nM |  | 21 nM | 30 nM | 10 nM |  | 
4 | CC(C)Cc1cnc2nn(-c3cc(NC(=O)N4CC(F)C4)ccc3F)cc2c1 [Compound 14, 3-fluoro-N-{4-fluoro-3-[5-(2-methylpropyl)-2H-pyrazolo[3,4-b]pyridin-2-yl]phenyl}azetidine-1-carboxamide] | 12 nM |  | 2 nM | 9.7 nM | < 23 nM |  | 
5 | CN(C)c1cnc2nn(-c3cc(NC(=O)N4CC(F)(F)C4)ccc3F)cc2c1 [Compound 9, N-(3-(5-(dimethylamino)-2H-pyrazolo[3,4-b]pyridin-2-yl)-4-fluorophenyl)-3,3-difluoroazetidine-1-carboxamide] | 8.7 nM |  | 9.8 nM | 11 nM | 35 nM |  | 
6 | O=C(Nc1ccc(F)c(-n2cc3cc(-c4c[nH]cn4)cnc3n2)c1)N1CC(F)C1 [Compound 295, 3-fluoro-N-{4-fluoro-3-[5-(1H-imidazol-4-yl)-2H-pyrazolo[3,4-b]pyridin-2-yl]phenyl}azetidine-1-carboxamide] | 292 nM |  | 4290 nM | 1970 nM | 38 nM |  | 
7 | Cc1nc(CO)c(C(=O)Nc2ccc(F)c(-n3cc4cc(-c5ncccc5C)cnc4n3)c2)o1 [Compound 277, N-(4-fluoro-3-(5-(3-methylpyridin-2-yl)-2H-pyrazolo[3,4-b]pyridin-2-yl)phenyl)-4-(hydroxymethyl)-2-methyloxazole-5-carboxamide] | 40 nM |  | 144 nM | 138 nM | 82 nM |  | 
8 | Cc1nccnc1-c1cnc2nn(-c3cc(NC(=O)N4CC(F)C4)ccc3F)cc2c1 [Compound 312, 3-fluoro-N-{4-fluoro-3-[5-(3-methylpyrazin-2-yl)-2H-pyrazolo[3,4-b]pyridin-2-yl]phenyl}azetidine-1-carboxamide] | 3 nM |  | 4 nM | 2 nM | 33 nM |  | 
9 | O=C(Nc1ccc(F)c(-n2cc3cc(Br)cnc3n2)c1)N1CC(F)C1 [Compound 126, N-(3-(5-bromo-2H-pyrazolo[3,4-b]pyridin-2-yl)-4-fluorophenyl)-3-fluoroazetidine-1-carboxamide] | 24 nM |  |  |  | < 23 nM | 14 nM | 14 nM
10 | O=C(Nc1ccc(Cl)c(-n2cc3cc(N4CC(F)(F)C4)cnc3n2)c1)N1CCC1 [Compound 284, N-{4-chloro-3-[5-(3,3-difluoroazetidin-1-yl)-2H-pyrazolo[3,4-b]pyridin-2-yl]phenyl}azetidine-1-carboxamide] | 27 nM |  | 15 nM | 56 nM | 15 nM |  | 
11 | Cc1nc(C)c(C(=O)Nc2ccc(F)c(-n3cc4cc(N(C)C)cnc4n3)c2)o1 [Compound 154, N-{3-[5-(dimethylamino)-2H-pyrazolo[3,4-b]pyridin-2-yl]-4-fluorophenyl}-2,4-dimethyl-1,3-oxazole-5-carboxamide] | 53 nM |  | 23 nM | 78 nM | 37 nM |  | 
12 | CC(C)c1cnc2nn(-c3cc(NC(=O)CC4CCC4)ccc3F)cc2c1 [Compound 216, 2-cyclobutyl-N-{4-fluoro-3-[5-(propan-2-yl)-2H-pyrazolo[3,4-b]pyridin-2-yl]phenyl}acetamide] | 3700 nM |  | 435 nM | 4670 nM | 620 nM |  | 
13 | CC(C)c1cnc2nn(-c3cc(NC(=O)c4cc(Cl)ccc4F)ccc3F)cc2c1 [Compound 89, 5-chloro-2-fluoro-N-{4-fluoro-3-[5-(propan-2-yl)-2H-pyrazolo[3,4-b]pyridin-2-yl]phenyl}benzamide] | 470 nM |  | 32 nM | 270 nM | 33 nM |  | 
14 | Cc1nc(C(=O)Nc2ccc(F)c(-n3cc4cc(C(C)C)cnc4n3)c2)oc1C [Compound 81, N-{4-fluoro-3-[5-(propan-2-yl)-2H-pyrazolo[3,4-b]pyridin-2-yl]phenyl}-4,5-dimethyl-1,3-oxazole-2-carboxamide] | 3160 nM |  | 420 nM | 3600 nM | 360 nM |  | 
15 | O=C(Nc1ccc(F)c(-n2cc3cc(N4CCOCC4)cnc3n2)c1)N1CC(F)(F)C1 [Compound 145, 3,3-difluoro-N-{4-fluoro-3-[5-(morpholin-4-yl)-2H-pyrazolo[3,4-b]pyridin-2-yl]phenyl}azetidine-1-carboxamide] | 5.4 nM |  | 18 nM | 4.7 nM | < 23 nM |  | 
16 | Cc1cccnc1-c1cnc2nn(-c3cc(NC(=O)N4CCC4)ccc3F)cc2c1 [Compound 3, N-(4-fluoro-3-(5-(3-methylpyridin-2-yl)-2H-pyrazolo[3,4-b]pyridin-2-yl)phenyl)azetidine-1-carboxamide] | 1.8 nM |  | 1.6 nM | 2 nM | < 23 nM |  | 
17 | O=C(Nc1ccc(F)c(-n2cc3cc(N4CCC5(CC5)C4)cnc3n2)c1)N1CC(F)C1 [Compound 241, N-[3-(5-{5-azaspiro[2.4]heptan-5-yl}-2H-pyrazolo[3,4-b]pyridin-2-yl)-4-fluorophenyl}-3-fluoroazetidine-1-carboxamide] | 1190 nM |  | 3 nM | 6 nM | 5 nM |  | 
18 | O=C(Nc1ccc(F)c(-n2cc3cc(N4CCN(CC(F)(F)F)CC4)cnc3n2)c1)N1CCC1 [Compound 250, N-(4-fluoro-3-{5-[4-(2,2,2-trifluoroethyl)piperazin-1-yl]-2H-pyrazolo[3,4-b]pyridin-2-yl}phenyl)azetidine-1-carboxamide] | 43 nM |  | 1 nM | 10 nM | 5 nM |  | 
19 | O=C(O)C1CCN(c2cnc3nn(-c4cc(NC(=O)N5CC(F)C5)ccc4F)cc3c2)CC1 [Compound 236, 1-(2-{2-fluoro-5-[(3-fluoroazetidine-1-carbonyl)amino]phenyl}-2H-pyrazolo[3,4-b]pyridin-5-yl)piperidine-4-carboxylic acid] | 264 nM |  | 20000 nM | 29700 nM | 1460 nM |  | 
20 | CC(C)c1cnc2nn(-c3cc(NC(=O)c4nc(Cl)ccc4F)ccc3F)cc2c1 [Compound 86, 6-chloro-3-fluoro-N-{4-fluoro-3-[5-(propan-2-yl)-2H-pyrazolo[3,4-b]pyridin-2-yl]phenyl}pyridine-2-carboxamide] | 130 nM |  | 14 nM | 120 nM | < 23 nM |  | 
21 | CCC(C)(C)c1cnc2nn(-c3cc(NC(=O)c4ccco4)ccc3F)cc2c1 [Compound 60, N-{4-fluoro-3-[5-(2-methylbutan-2-yl)-2H-pyrazolo[3,4-b]pyridin-2-yl]phenyl}furan-2-carboxamide] | 2000 nM |  | 440 nM | 2400 nM | 1300 nM |  | 
22 | O=C(Nc1ccc(F)c(-n2cc3cc(Br)cnc3n2)c1)N1CC(F)(F)C1 [Compound 125, N-(3-(5-bromo-2H-pyrazolo[3,4-b]pyridin-2-yl)-4-fluorophenyl)-3,3-difluoroazetidine-1-carboxamide] | 44 nM |  |  |  | < 23 nM | 34 nM | 31 nM
23 | O=C(Nc1ccc(F)c(-n2cc3cc(N4CC(F)(F)C4)cnc3n2)c1)N1CC(F)(F)C1 [Compound 299, N-{3-[5-(3,3-difluoroazetidin-1-yl)-2H-pyrazolo[3,4-b]pyridin-2-yl]-4-fluorophenyl}-3,3-difluoroazetidine-1-carboxamide] | 29 nM |  | 14 nM | 7 nM | 5 nM |  | 
24 | O=C(Nc1ccc(F)c(-n2cc3cc(N4CCC4)cnc3n2)c1)N1CC[C@@H](F)C1 [Compound 149] | 11 nM |  | 5.4 nM | 7.9 nM | < 23 nM |  | 

Reference: US11384078B2, “5,6-fused-bicyclic compounds and compositions for the treatment of parasitic diseases” (NOVARTIS AG, priority 2017, dated 2022)
